Test results as given in patent publication EP1166782A2, “Anti-retroviral pharmaceutical compositions” (Yang, Chi-Chiang, priority 2000, dated 2002).
Like-named read-outs stand apart in the source and are kept apart here.

Legend:
T cells-tropic (JRCSF) = assay: P24 quantification (P24 EIA) in infected PBMCs, JRCSF; format: cell-based, HIV-1; conditions: PBMC; for concentrations of the viral P24 antigen, JRCSF(+): (+) original concentration of compound maintained after washing; for concentrations of the viral P24 antigen, JRCSF(-): (-) compound removed after washing
Method: (§1) PBMCs were treated with various concentrations of CAPE, MC and PEDMC provided in Example 2 and simultaneously infected with […] and macrophage and T cells dual tropic (89.6) HIV-1 isolates. The next day, the added compounds were removed by washing methods or maintained at the same concentration. Samples were divided into two groups and the upernatants of the culture medium were collected at the 3 and 7 days after infection, respectively. The use of P24 EIA Reagent Kit of Abbott Laboratory compares the concentrations of viral P24 antigen with or without the compounds tested.

[1] = tested on: macrophage-tropic (NL-43); assay: P24 quantification (P24 EIA) in infected PBMCs, NL-43; format: cell-based, HIV-1; conditions: PBMC; for concentrations of the viral P24 antigen, NL43(+): (+) original concentration of compound maintained after washing; for concentrations of the viral P24 antigen, NL43(-): (-) compound removed after washing
Method: as §1

[2] = tested on: macrophage and T cells dual tropic (89.6); assay: P24 quantification (P24 EIA) in infected PBMCs, 89.6; format: cell-based, HIV-1; conditions: PBMC; for concentrations of the viral P24 antigen, 89.6(+): (+) original concentration of compound maintained after washing; for concentrations of the viral P24 antigen, 89.6(-): (-) compound removed after washing
Method: as §1

[3] = tested on: Peripheral Blood Mononuclear Cells (PBMC); conditions: for The numbers of dead cells in 400 cells' count / % viability: 48 hours; for The numbers of dead cells in 400 cells' count: control 9 dead cells; for % viability: viable cells versus control (391);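 as to all read-outs here: trypan blue dye exclusion, cells stained and counted from quadruplicate dishes, DMSO vehicle kept under 0.5%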
Method: Viability of the cells was assayed by the trypan blue dye exclusion method. […] The concentration of DMSO was adjusted to be less than 0.5%. Cells from quadruplicated dishes were washed once with Hank's Balanced Salt Solution (HBSS). According to the process, the floating dead cells will be separated from the live monolayer cells. Then the cells were stained with trypan blue and counted. The total number of viable cells in the control group was considered as 100% viability and the agent-treated cells were compared with the control group for the determination of % viability. The % viability of agent-treated cells was calculated from the total number of viable cells in the control group and in the agent-treated group.

[4] = tested on: various HIV isolates (NL-43, JRCSF or 89.6); assay: P24 quantification, summary statements over all isolates; format: cell-based, HIV-1
Method: as §1

SMILES: COC(=O)/C=C/c1ccc(O)c(O)c1 [MC, methyl caffeate]
- concentrations of the viral P24 antigen, JRCSF(+) (T cells-tropic (JRCSF); 0.1 µM): 1000 unit
- concentrations of the viral P24 antigen, JRCSF(-) (T cells-tropic (JRCSF); 0.1 µM): 1000 unit
- concentrations of the viral P24 antigen, JRCSF(+) (T cells-tropic (JRCSF); 0.5 µM): 1000 unit
- concentrations of the viral P24 antigen, JRCSF(-) (T cells-tropic (JRCSF); 0.5 µM): 1000 unit
- concentrations of the viral P24 antigen, JRCSF(+) (T cells-tropic (JRCSF); 1 µM): 1000 unit
- concentrations of the viral P24 antigen, JRCSF(-) (T cells-tropic (JRCSF); 1 µM): 1000 unit
- concentrations of the viral P24 antigen, JRCSF(+) (T cells-tropic (JRCSF); 5 µM): 58.13 unit
- concentrations of the viral P24 antigen, JRCSF(-) (T cells-tropic (JRCSF); 5 µM): 1000 unit
- concentrations of the viral P24 antigen, JRCSF(+) (T cells-tropic (JRCSF); 10 µM): 2.53 unit
- concentrations of the viral P24 antigen, JRCSF(-) (T cells-tropic (JRCSF); 10 µM): 828.46 unit
- concentrations of the viral P24 antigen, JRCSF(+) (T cells-tropic (JRCSF); 25 µM): 2.33 unit
- concentrations of the viral P24 antigen, JRCSF(-) (T cells-tropic (JRCSF); 25 µM): 786.67 unit
- concentrations of the viral P24 antigen, JRCSF(+) (T cells-tropic (JRCSF); 50 µM): 0 unit
- concentrations of the viral P24 antigen, JRCSF(-) (T cells-tropic (JRCSF); 50 µM): 42.64 unit
- concentrations of the viral P24 antigen, JRCSF(+) (T cells-tropic (JRCSF); 100 µM): 0 unit
- concentrations of the viral P24 antigen, JRCSF(-) (T cells-tropic (JRCSF); 100 µM): 0 unit
- concentrations of the viral P24 antigen, JRCSF(+) (T cells-tropic (JRCSF); 200 µM): 0 unit
- concentrations of the viral P24 antigen, JRCSF(-) (T cells-tropic (JRCSF); 200 µM): 0 unit
- concentrations of the viral P24 antigen, JRCSF(+) (T cells-tropic (JRCSF); 400 µM): 0 unit
- concentrations of the viral P24 antigen, JRCSF(-) (T cells-tropic (JRCSF); 400 µM): 0 unit
- concentrations of the viral P24 antigen, NL43(+) ([1]; 0.1 µM): 1000 unit
- concentrations of the viral P24 antigen, NL43(-) ([1]; 0.1 µM): 1000 unit
- concentrations of the viral P24 antigen, NL43(+) ([1]; 0.5 µM): 1000 unit
- concentrations of the viral P24 antigen, NL43(-) ([1]; 0.5 µM): 1000 unit
- concentrations of the viral P24 antigen, NL43(+) ([1]; 1 µM): 1000 unit
- concentrations of the viral P24 antigen, NL43(-) ([1]; 1 µM): 1000 unit
- concentrations of the viral P24 antigen, NL43(+) ([1]; 5 µM): 1000 unit
- concentrations of the viral P24 antigen, NL43(-) ([1]; 5 µM): 1000 unit
- concentrations of the viral P24 antigen, NL43(+) ([1]; 10 µM): 1000 unit
- concentrations of the viral P24 antigen, NL43(-) ([1]; 10 µM): 1000 unit
- concentrations of the viral P24 antigen, NL43(+) ([1]; 25 µM): 220.63 unit
- concentrations of the viral P24 antigen, NL43(-) ([1]; 25 µM): 1000 unit
- concentrations of the viral P24 antigen, NL43(+) ([1]; 50 µM): 273.07 unit
- concentrations of the viral P24 antigen, NL43(-) ([1]; 50 µM): 922.63 unit
- concentrations of the viral P24 antigen, NL43(+) ([1]; 100 µM): 0 unit
- concentrations of the viral P24 antigen, NL43(-) ([1]; 100 µM): 687.24 unit
- concentrations of the viral P24 antigen, NL43(+) ([1]; 200 µM): 0 unit
- concentrations of the viral P24 antigen, NL43(-) ([1]; 200 µM): 518.45 unit
- concentrations of the viral P24 antigen, NL43(+) ([1]; 400 µM): 0 unit
- concentrations of the viral P24 antigen, NL43(-) ([1]; 400 µM): 2.53 unit
- concentrations of the viral P24 antigen, 89.6(+) ([2]; 0.1 µM): 1000 unit
- concentrations of the viral P24 antigen, 89.6(-) ([2]; 0.1 µM): 1000 unit
- concentrations of the viral P24 antigen, 89.6(+) ([2]; 0.5 µM): 954.88 unit
- concentrations of the viral P24 antigen, 89.6(-) ([2]; 0.5 µM): 1000 unit
- concentrations of the viral P24 antigen, 89.6(+) ([2]; 1 µM): 149.67 unit
- concentrations of the viral P24 antigen, 89.6(-) ([2]; 1 µM): 966.67 unit
- concentrations of the viral P24 antigen, 89.6(+) ([2]; 5 µM): 66.78 unit
- concentrations of the viral P24 antigen, 89.6(-) ([2]; 5 µM): 1000 unit
- concentrations of the viral P24 antigen, 89.6(+) ([2]; 10 µM): 14.36 unit
- concentrations of the viral P24 antigen, 89.6(-) ([2]; 10 µM): 624.39 unit
- concentrations of the viral P24 antigen, 89.6(+) ([2]; 25 µM): 5.2 unit
- concentrations of the viral P24 antigen, 89.6(-) ([2]; 25 µM): 504.42 unit
- concentrations of the viral P24 antigen, 89.6(+) ([2]; 50 µM): 18.4 unit
- concentrations of the viral P24 antigen, 89.6(-) ([2]; 50 µM): 286.46 unit
- concentrations of the viral P24 antigen, 89.6(+) ([2]; 100 µM): 8.91 unit
- concentrations of the viral P24 antigen, 89.6(-) ([2]; 100 µM): 278.43 unit
- concentrations of the viral P24 antigen, 89.6(+) ([2]; 200 µM): 0 unit
- concentrations of the viral P24 antigen, 89.6(-) ([2]; 200 µM): 124.97 unit
- concentrations of the viral P24 antigen, 89.6(+) ([2]; 400 µM): 0 unit
- concentrations of the viral P24 antigen, 89.6(-) ([2]; 400 µM): 0 unit
- The numbers of dead cells in 400 cells' count ([3]; 0.1 µM): 9
- % viability ([3]; 0.1 µM): 391/391 (100%)
- The numbers of dead cells in 400 cells' count ([3]; 0.5 µM): 7
- % viability ([3]; 0.5 µM): 393/391 (100.5%)
- The numbers of dead cells in 400 cells' count ([3]; 1 µM): 12
- % viability ([3]; 1 µM): 388/391 (99.2%)
- The numbers of dead cells in 400 cells' count ([3]; 5 µM): 9
- % viability ([3]; 5 µM): 391/391 (100%)
- The numbers of dead cells in 400 cells' count ([3]; 10 µM): 7
- % viability ([3]; 10 µM): 393/391 (100.5%)
- The numbers of dead cells in 400 cells' count ([3]; 25 µM): 11
- % viability ([3]; 25 µM): 389/391 (99.5%)
- The numbers of dead cells in 400 cells' count ([3]; 50 µM): 11
- % viability ([3]; 50 µM): 389/391 (99.5%)
- The numbers of dead cells in 400 cells' count ([3]; 100 µM): 7
- % viability ([3]; 100 µM): 393/391 (100.5%)
- The numbers of dead cells in 400 cells' count ([3]; 200 µM): 8
- % viability ([3]; 200 µM): 392/391 (100.3%)
- The numbers of dead cells in 400 cells' count ([3]; 400 µM): 7
- % viability ([3]; 400 µM): 393/391 (100.5%)
- viabilities of PBMC under high-dose versus low-dose treatments (result in words) ([3]; high dose up to 400 µM compared with 0.1-10 µM): no substantial differences
- viral replications (result in words) ([4]; Figures 3-5, PBMC infected with NL-43, JRCSF or 89.6): significantly inhibited viral replications
- inhibit viral replication ([4]; at the concentration of 100 µM or less, various HIV isolates): 100%
